The results in this text go back to publication PMC5970136, “Molecular basis of dimer formation during the biosynthesis of benzofluorene-containing atypical angucyclines” (Nature Communications, 2018).

Converted amounts (≈) assume the structure as drawn. Some results are limits rather than exact numbers.

Assay in all cases: microbe, parasite or virus in culture
What all share (design): broth microdilution in Mueller-Hinton broth, minimum inhibitory concentration

One assay deals with T1, S. aureus ATCC 29213.
T1 construct: ATCC 29213
Conditions: Staphylococcus aureus, ATCC29213, 18 h. The procedure:
(§1) Antimicrobial activities were measured against seven indicator strains (Staphylococcus aureus ATCC 29213, Escherichia coli ATCC 25922, Enterococcus faecalis ATCC 29212, Acinetobacter baumannii ATCC 19606, Bacillus subtilis SCSIO BS01, Micrococcus Luteus SCSIO ML01, and methicillin resistant S. aureus ATCC 43300) by the broth microdilution method[8],[9]. Bacterial strains were grown to achieve an optical absorbance of 0.04−0.06 at 600 nm on a rotary shaker at 37 °C. […] The minimum inhibitory concentration (MIC) values were measured after 18 h cultivation. Each compound was tested in triplicates with TMP as a positive control. […] A proof of concept experiment was carried out in which FST D (7) was incubated with the antibacterial agent trimethoprim (TMP, 34). Two products 35 and 36 isolated from this reaction (Fig. 6a, Supplementary Fig. 128) were structurally characterized as hybrids of TMP and FST (Fig. 6a; Supplementary Figs. 129−142). Similar results were obtained upon incubation of TMP (34) with compound 27, but not with compound 28 (Supplementary Fig. 143). These findings again support the hypothesis that spontaneous formation of a p-QM precursor is a prerequisite for the production of FST hybrids.

The subject of a further assay is T2, E. faecalis ATCC 29212.
T2 construct: ATCC 29212
Conditions: Enterococcus faecalis, ATCC29212, 18 h. How it is done:
as §1

The next assay relates to T3, E. coli ATCC 25922.
T3 construct: ATCC 25922
Conditions: Escherichia coli, ATCC25922, 18 h. The procedure:
as §1

The test system of a further assay is T4, B. subtilis SCSIO BS01.
T4 construct: SCSIO BS01
Conditions: Bacillus subtilis, SCSIOBS01, 18 h. How it is done: as §1

The next assay relates to T5, A. baumannii ATCC 19606.
T5 construct: ATCC 19606
Conditions: Acinetobacter baumannii, ATCC19606, 18 h. How it is done: as §1

The subject of a further assay is T6, M. Luteus SCSIO ML01.
T6 construct: SCSIO ML01
Conditions: Micrococcus luteus, 18 h. How it is done: as §1

Assay [1] deals with T7, Staphylococcus aureus MRSA ATCC 43300.
T7 construct: ATCC 43300 (methicillin resistant)
Conditions: 18 h. How it is done:
as §1

On to `COc1cc(Cc2cnc(N)nc2N)cc(OC)c1OC` [Trimethoprim], for which the MIC in the assay on S. aureus ATCC 29213 is 0.5 µg/mL (≈ 1.72 µM); in the assay on E. faecalis ATCC 29212 it was 2 µg/mL (≈ 6.89 µM); in the assay on E. coli ATCC 25922 it was 0.25 µg/mL (≈ 0.861 µM); in the assay on B. subtilis SCSIO BS01 it was 0.5 µg/mL (≈ 1.72 µM); with A. baumannii ATCC 19606, 64 µg/mL (≈ 220 µM); in the assay with M. Luteus SCSIO ML01, 1 µg/mL (≈ 3.44 µM). Also, the MIC in assay [1] is 0.5 µg/mL (≈ 1.72 µM).

Turning to `Cc1ccc2c3c(c(O)cc2c1O)-c1c(O)cccc1C3=O` [compound 12, isoprefluostatin], the MIC with S. aureus ATCC 29213 is 64 µg/mL (≈ 219 µM); in the assay on E. faecalis ATCC 29212, > 64 µg/mL; against E. coli ATCC 25922, > 64 µg/mL; against B. subtilis SCSIO BS01, 32 µg/mL (≈ 109 µM); against A. baumannii ATCC 19606, > 64 µg/mL; in the assay on M. Luteus SCSIO ML01 it was 64 µg/mL (≈ 219 µM). In assay [1], this compound returned an MIC of 64 µg/mL (≈ 219 µM).

`C[C@]12O[C@H]1[C@H](Nc1ccc(C(=O)O)cc1)c1c(cc(O)c3c1C(=O)c1cccc(O)c1-3)C2=O` [compound 14, FST S]: the MIC in the assay on S. aureus ATCC 29213, with E. faecalis ATCC 29212, with E. coli ATCC 25922, against B. subtilis SCSIO BS01, in the assay on A. baumannii ATCC 19606 and in the assay on M. Luteus SCSIO ML01 was > 64 µg/mL in each case. Besides, the MIC in assay [1] is > 64 µg/mL.

In the case of `CC(=O)NN1c2c(c3c(c4c2C(=O)C(C)(O)C=C4)C(=O)c2cccc(O)c2-3)OC2C1c1c(cc(O)c3c1C(=O)c1cccc(O)c1-3)C(=O)C2(C)O` (centres unmarked) [compound 15, difluostatin B], the MIC in the assay on S. aureus ATCC 29213, against E. faecalis ATCC 29212, in the assay on E. coli ATCC 25922, in the assay with B. subtilis SCSIO BS01, against A. baumannii ATCC 19606 and against M. Luteus SCSIO ML01 was > 64 µg/mL each time. Besides, the MIC in assay [1] is > 64 µg/mL.

Take `Cc1cc(O)cc(O)c1C(=O)c1c(O)cccc1Cc1cc2c(c(=O)o1)C1c3c(cc(O)c4c3C(=O)c3cccc(O)c3-4)C(=O)C(C)(O2)C1O` (centres unmarked) [compound 16, difluostatin C]: the MIC against S. aureus ATCC 29213, against E. faecalis ATCC 29212, with E. coli ATCC 25922, in the assay on B. subtilis SCSIO BS01, in the assay with A. baumannii ATCC 19606 and in the assay on M. Luteus SCSIO ML01 was > 64 µg/mL in each case. Moreover, in assay [1], the MIC was > 64 µg/mL.

Turning to `CC12OC1C(O)c1c(cc(O)c3c1C(=O)c1c(C4c5c(cc(O)c6c5C(=O)c5cccc(O)c5-6)C(=O)C5(C)OC45)ccc(O)c1-3)C2=O` (centres unmarked) [compound 24, difluostatin F], the MIC in the assay on S. aureus ATCC 29213, in the assay with E. faecalis ATCC 29212, in the assay on E. coli ATCC 25922, in the assay on B. subtilis SCSIO BS01, with A. baumannii ATCC 19606 and in the assay with M. Luteus SCSIO ML01 was > 64 µg/mL in each case. Also, the MIC in assay [1] was > 64 µg/mL.

On to `COC1c2c(cc(O)c3c2C(=O)c2c(C4c5c(cc(O)c6c5C(=O)c5cccc(O)c5-6)C(=O)C5(C)OC45)ccc(O)c2-3)C(=O)C2(C)OC12` (centres unmarked) [compound 26, difluostatin H], for which the MIC against S. aureus ATCC 29213 is > 64 µg/mL; against E. faecalis ATCC 29212, > 64 µg/mL; against E. coli ATCC 25922, > 64 µg/mL; with B. subtilis SCSIO BS01, 64 µg/mL (≈ 99.3 µM); in the assay on A. baumannii ATCC 19606 it was > 64 µg/mL; against M. Luteus SCSIO ML01, > 64 µg/mL. Moreover, in assay [1], the MIC is > 64 µg/mL.

`Cc1ccc2c(c1)OC1(C)C(=O)c3cc(O)c4c(c3C(N2)C1O)C(=O)c1cccc(O)c1-4` (centres unmarked) [compound 33, 33]: the MIC against S. aureus ATCC 29213, in the assay with E. faecalis ATCC 29212, against E. coli ATCC 25922, against B. subtilis SCSIO BS01, in the assay on A. baumannii ATCC 19606 and in the assay with M. Luteus SCSIO ML01 was > 64 µg/mL each time. For the same compound, in assay [1], the MIC was > 64 µg/mL.
